One block for each compound: values may come before it.
Key:
[1] = logP determination by HPLC (reversed-phase C18), EEC Directive 79/831 Annex V.A8; details: for logP: Table 3, compounds of formula (IV); labelled a): acidic range, 0.1% aqueous phosphoric acid, acetonitrile, linear gradient 10% to 90% acetonitrile, 43° C.; for chromatographic logP: reversed-phase C18 HPLC column
[2] = tested on: Abutilon; assay: Pre-emergence test/greenhouse; type: in vivo; details: after three weeks
Experimental: (§1) • Solvent: 5 parts by weight of acetone • Emulsifier: 1 part by weight of alkylaryl polyglycol ether
(§2) To produce a suitable preparation of active compound, 1 part by weight of active compound is mixed with the stated amount of solvent, the stated amount of emulsifier is added and the concentrate is diluted with water to the desired concentration.
(§3) Seeds of the test plants are sown in normal soil. After approximately 24 hours, the soil is sprayed with the preparation of active compound such that the particular amount of active compound desired is applied per unit area. The concentration of the spray liquor is chosen so that the particular amount of active compound desired is applied in 1000 liters of water per hectare.
(§4) After three weeks, the degree of damage to the plants is assesssed in % damage in comparison to the development of the untreated control.

[3] = tested on: Cyperus; assay: Pre-emergence test/greenhouse; type: in vivo; details: after three weeks
Experimental: as §1, §2, §3, §4

[4] = tested on: weeds; assay: Pre-emergence test, activity against weeds; type: in vivo
Experimental: as §1, §2, §3, §4

[5] = tested on: Maize; assay: Pre-emergence test/greenhouse; type: in vivo; details: 500 g ai./ha, after three weeks
Experimental: as §1, §2, §3, §4

[6] = tested on: Amaranthus; assay: Post emergence test/greenhouse; type: in vivo; details: after three weeks
Experimental: as §1, §2
(§5) Test plants which have a height of 5-15 cm are sprayed with the preparation of active compound in such a way that the particular amounts of active compound desired are applied per unit area. The concentration of the spray liquor is chosen so that the particular amounts of active compound desired are applied in 1000 1 of water/ha.
as §4

[7] = tested on: Maize; assay: Post emergence test/greenhouse; type: in vivo; details: after three weeks
Experimental: as §1, §2, §5, §4

[8] = tested on: Sinapis; assay: Post emergence test/greenhouse; type: in vivo; details: after three weeks
Experimental: as §1, §2, §5, §4

[9] = tested on: weeds; assay: Post-emergence test, activity against weeds; type: in vivo
Experimental: as §1, §2, §5, §4

melting point: 207 °C
Structure (SMILES): Cn1c(C(F)(F)F)nn(Cc2c(Cl)ccc(C(=O)O)c2Cl)c1=O [III-3, 4-methyl-5-trifluoromethyl-2-(2,6-dichloro-3-carboxy-benzyl)-2,4-dihydro-3H-1,2,4-triazol-3-one]

melting point: 109 °C
Structure (SMILES): COC(=O)c1ccc(Cl)c(Cn2nc(C(F)(F)F)n(C)c2=O)c1Cl [IV-2, 4-methyl-5-trifluoromethyl-2-(2,6-dichloro-3-methoxycarbonyl-benzyl)-2,4-dihydro-3H-1.2.4-triazol-3-one]

Structure (SMILES): CCOC(=O)c1ccc(C(F)(F)F)cc1Cn1nc(SC)n(C)c1=O [IV-49]
logP [1]: logP = 3.02^a)

Structure (SMILES): CCCOC(=O)c1ccc(C(F)(F)F)cc1Cn1nc(OCC)n(C2CC2)c1=O [IV-50]
logP [1]: logP = 3.91^a)

Structure (SMILES): CCOC(=O)c1ccc(Br)cc1Cn1nc(OCC)n(C)c1=O [IV-58]
logP [1]: logP = 2.95^a)

Structure (SMILES): CCOC(=O)c1ccc(Br)cc1CN1C(=O)CCC1=O [IV-60]
logP [1]: logP = 2.44^a)

Structure (SMILES): CCOC(=O)c1ccc(Br)cc1Cn1nc(OC(C)C)n(C)c1=O [IV-65]
logP [1]: logP = 3.34^a)

Structure (SMILES): CCCOc1nn(Cc2cc(Br)ccc2C(=O)OCC)c(=O)n1C [IV-66]
logP [1]: logP = 3.38^a)

Structure (SMILES): CCOC(=O)c1ccc(Br)cc1Cn1nc(OCC(F)(F)F)n(C)c1=O [IV-67]
logP [1]: logP = 3.31^a)

Structure (SMILES): CCOC(=O)c1ccc(Br)cc1Cn1nc2n(c1=O)CCC2 [IV-68]
logP [1]: logP = 2.16^a)

Structure (SMILES): CCOC(=O)c1ccc(Br)cc1Cn1nc2n(c1=O)CCCC2 [IV-69]
logP [1]: logP = 2.41^a)

Structure (SMILES): CCOC(=O)c1ccc(C(F)(F)F)cc1Cn1nc(OC(C)C)n(C)c1=O [IV-70]
logP [1]: logP = 3.51^a)

Structure (SMILES): CCCOc1nn(Cc2cc(C(F)(F)F)ccc2C(=O)OCC)c(=O)n1C [IV-71]
logP [1]: logP = 3.54^a)

Structure (SMILES): CCOC(=O)c1ccc(Br)cc1CN1CCOC1=O [IV-72]
logP [1]: logP = 2.36^a)

Structure (SMILES): CCOC(=O)c1ccc(Br)cc1Cn1nc(C)oc1=O [IV-73]
logP [1]: logP = 2.88^a)

Structure (SMILES): CCOC(=O)c1ccc(C(F)(F)F)cc1Cn1cnn(C)c1=O [IV-74]
logP [1]: logP = 2.68^a)

Structure (SMILES): CCOC(=O)c1ccc(Br)cc1Cn1nc(Br)n(C)c1=O [IV-75]
logP [1]: logP = 2.80^a)

Structure (SMILES): CCOC(=O)c1ccc(C(F)(F)F)cc1Cn1nc(COC)n(C2CC2)c1=O [IV-77]
logP [1]: logP = 2.88^a)

Structure (SMILES): CCOC(=O)c1ccc(C(F)(F)F)cc1Cn1nc(COC)n(C)c1=O [IV-78]
logP [1]: logP = 2.60^a)

Structure (SMILES): CCOC(=O)c1ccc(C(F)(F)F)cc1Cn1nc(Br)n(C2CC2)c1=O [IV-79]
logP [1]: logP = 3.35^a)

Structure (SMILES): CCOC(=O)c1ccc(Br)cc1Cn1nc(SC)n(C)c1=O [IV-80]
logP [1]: logP = 2.86^a)

Structure (SMILES): CCOC(=O)c1ccc(Cl)cc1Cn1nc(SC)n(C)c1=O [IV-81]
logP [1]: logP = 2.83^a)

Structure (SMILES): CCOC(=O)c1ccc(Br)cc1Cn1nc(N(C)C)n(C)c1=O [IV-82]
logP [1]: logP = 2.60^a)

Structure (SMILES): CCOC(=O)c1ccc(C(F)(F)F)cc1Cn1nc(N(C)C)n(C)c1=O [IV-85]
logP [1]: logP = 2.79^a)

Structure (SMILES): CCOC(=O)c1ccc(C(F)(F)F)cc1CN1C(=O)c2ccccc2S1(=O)=O [IV-86]
logP [1]: logP = 3.67^a)

Structure (SMILES): CCOC(=O)c1ccc(C(F)(F)F)cc1CN1C(=O)c2ccccc2C1=O [IV-87]
logP [1]: logP = 3.80^a)

Structure (SMILES): CCOC(=O)c1ccc(S(C)(=O)=O)cc1Cn1nc(SC)n(C)c1=O [IV-89]
logP [1]: logP = 1.82^a)

Structure (SMILES): CCOC(=O)c1ccc(C(F)(F)F)cc1Cn1cc(C(F)(F)F)c(=O)[nH]c1=O [IV-90]
logP [1]: logP = 2.93^a)

Structure (SMILES): CCOC(=O)c1ccc(C(F)(F)F)cc1Cn1nc(C)oc1=O [IV-92]
logP [1]: logP = 3.04^a)

Structure (SMILES): CCOC(=O)c1ccc(C(F)(F)F)cc1Cn1nc(OCC(F)(F)F)n(C)c1=O [IV-93]
logP [1]: logP = 3.45^a)

Structure (SMILES): CCOC(=O)c1ccc(F)cc1Cn1nc(N(C)C)n(C)c1=O [IV-94]
logP [1]: logP = 2.21^a)

Structure (SMILES): CCCOc1nn(Cc2cc(F)ccc2C(=O)OCC)c(=O)n1C [IV-95]
logP [1]: logP = 2.96^a)

Structure (SMILES): CCOC(=O)c1ccc(F)cc1Cn1nc(COC)n(C)c1=O [IV-96]
logP [1]: logP = 2.05^a)

Structure (SMILES): CCOC(=O)c1ccc(F)cc1Cn1nc(OC)n(C2CC2)c1=O [IV-97]
logP [1]: logP = 2.50^a)

Structure (SMILES): CCOC(=O)c1ccc(F)cc1Cn1nc(OCC)n(C2CC2)c1=O [IV-98]
logP [1]: logP = 2.89^a)

Structure (SMILES): CCOC(=O)c1ccc(C(F)(F)F)cc1CN1N=C(C)C(C)(C)C1=O [IV-99]
logP [1]: logP = 2.91^a)

Structure (SMILES): CCOC(=O)c1ccc(C(F)(F)F)cc1Cn1c(=O)n(C)c(=O)n1C [IV-113]
logP [1]: logP = 2.58^a)

Structure (SMILES): COC(=O)c1ccc(S(C)(=O)=O)cc1Cn1nc(SC)n(C)c1=O [IV-114]
logP [1]: logP = 1.53^a)

Structure (SMILES): CCOc1nn(Cc2cc(S(C)(=O)=O)ccc2C(=O)OC)c(=O)n1C [IV-115]
logP [1]: logP = 1.59^a)

Structure (SMILES): CCOc1nn(Cc2cc(I)ccc2C(=O)OC)c(=O)n1C [IV-116]
logP [1]: logP = 2.68^a)

Structure (SMILES): CCOc1nn(Cc2cc(C(F)(F)F)ccc2C(=O)OC)c(=O)n1C [IV-117]
logP [1]: logP = 2.74^a)

Structure (SMILES): COC(=O)c1ccc(C(F)(F)F)cc1Cn1nc(SC)n(C)c1=O [IV-118]
logP [1]: logP = 2.65^a)

Structure (SMILES): CCOC(=O)c1ccc(C(F)(F)F)cc1Cn1nc(Br)n(C)c1=O [IV-119]
logP [1]: logP = 2.96^a)

chromatographic logP ([1]; pH 2): 2.7
Structure (SMILES): CCOc1nn(Cc2cc(C(F)(F)F)ccc2C(=O)C2C(=O)CCCC2=O)c(=O)n1C [compound 1, 5-ethoxy-4-methyl-2-[2-(2,6-dioxo-cyclohexyl-carbonyl)-5-trifluoromethyl-benzyl]-2,4-dihydro-3H-1,2,4-triazol-3-one]
% damage Abutilon ([2]; 1000 g ai./ha): 100% | % damage Cyperus ([3]; 1000 g ai./ha): 100% | activity against weeds [4]: strong activity

melting point: 182 °C | chromatographic logP ([1]; pH 2): 3.13
Structure (SMILES): Cn1c(C(F)(F)F)nn(-c2ccc(C(=O)C3C(=O)CCCC3=O)c(Cl)c2)c1=O [compound 2, 2-[4-(2,6-dioxocyclohexylcarbonyl)-3-chloro-phenyl]4-methyl-5-trifluoromethyl-2,4-dihydro-3H-1,2,4-triazol-3′-one]

chromatographic logP [1]: 2.68
Structure (SMILES): CCOn1c(CC)nn(Cc2cc(Br)ccc2C(=O)C2C(=O)CCCC2=O)c1=O [compound 10]
% damage Abutilon ([2]; 500 g ai./ha): 90% | % damage Cyperus ([3]; 500 g ai./ha): 100% | % damage Maize [5]: 0% | activity against weeds [4]: strong activity | % damage Amaranthus ([6]; 500 g ai./ha): 95% | % damage Maize ([7]; 500 g ai./ha): 20% | % damage Sinapis ([8]; 500 g ai./ha): 80% | activity against weeds [9]: strong activity

Structure (SMILES): CCOc1nn(Cc2cc(Br)ccc2C(=O)C2C(=O)CCCC2=O)c(=O)n1C [compound 15]
% damage Amaranthus ([6]; 1000 g ai./ha): 90% | % damage Maize ([7]; 1000 g ai./ha): 0% | % damage Sinapis ([8]; 1000 g ai./ha): 80% | activity against weeds [9]: strong activity

— US6924251B1, “Substituted benzoylcyclohexandiones” (Bayer Aktiengesellschaft, priority 1998, dated 2005)
